Test results as given in patent US20070292895A1, “Assays and methods to detect beta-secretase and its activity in body fluids and tissue extracts” (priority 2006, published 2007).
Non-standard residues stand in square brackets, D forms with d. Residues, ends and D or L forms follow the SMILES beside them. *: point of attachment. Sta = CC(C)C[C@H](N)[C@@H](O)CC(=O)O; Isovaleryl = CC(C)CC(=O)*

Experiments:
[1] = tested on: non-specific aspartyl protease activity; assay: Non-specific aspartyl protease activity in brain membrane preparations, same HPLC cleavage assay; format: biochemical, mouse; conditions: membrane preparations from WT mice
Experimental: (§1) Brain BACE-1 enzymatic activity was measured using brain membrane extracts in a two-step method. In the first reaction step, a brain membrane extract containing endogenous BACE-1 is reacted with a coumarin labeled 10-mer peptide substrate in the presence of non-specific protease inhibitor cocktail and aspartyl protease inhibitor Pepstatin A. In a second detection step, an HPLC-based detection method is used to determine the extent of enzymatic cleavage of the 10-mer substrate.
(§2) Brain membranes are prepared as follows. Mice brain sections are homogenized in 10× w/v 50 mM MES buffer with protease inhibitor (Roche Applied Science, Indianapolis, Ind., Cat#11836145), pH 6.0 using a glass/Teflon homogenizer, using about 10 strokes. The homogenates are then spun at 2000 rpm (900×g) at 4° C. for 10 minutes. […] Protein concentration is determined using modified Bradford method (DC protein assay kit Cat#500-0114, Bio-Rad Laboratories, Hercules, Calif.). […]
(§3) In the second step, the BACE-1 cleavage product is detected. The resulting mixture is then chromatographed in a Waters Alliance HT HPLC system (Waters 2790, Waters Corporation, Milford, Mass.) to detect product and substrate fluorescence as follows. […]
(§4) The amount of cleaved product and substrate are detected with excitation at 340 nm and emission at 440 nm.

[2] = tested on: non-specific aspartyl protease activity; assay: Non-specific aspartyl protease activity in CSF (FIG. 9); format: biochemical; conditions: Pepstatin A 10 μM; this activity was about 59% of the protease activity in CSF
Experimental: (§5) This example illustrates a method for solution based detection of BACE-1 activity in cerebral spinal fluid (CSF). BACE-1 enzymatic activity in CSF was measured using a two-step method. In the first step, cleavage of a biotinylated peptide substrate is accomplished using CSF as the source of BACE-1 enzyme. In the second step, the extent of enzymatic cleavage of substrate is detected using an avidin-biotin complex and enzyme linked immunosorbent assay (ELISA).
(§6) In the peptide substrate cleavage step, 25 μL of either purified recombinant baculovirus expressed BACE-1(aa1-460) at a range of concentration from 0.8 pM to 100 pM or rhesus or human CSF is added to the wells of a 96 well assay plate (COSTAR brand, Cat#3365). […]
(§7) In the second step, the product of BACE-1 enzymatic cleavage of the biotin-labeled peptide is measured by ELISA. […]
(§8) Afterwards, the plate is washed three times with PBST. […] The reaction is finally developed using 100 μL/well of CDP-STAR ready-to-use with HRP substrate (EMD Biosciences, Inc. San Diego, Calif.) or SAPPHIRE-II Enhancer substrate (Applied Biosystems, Foster City, Calif., Cat# T2214) for 30 minutes at room temperature. Absorbance or Luminescence counts, respectively, are measured in LJL-Analyst (Molecular Devices Corp., Sunnyvale, Calif.). […]

[3] = target: T1, BACE-1 (Mus musculus, UniProt P56818); assay: Brain BACE-1 activity assay, brain membrane extract, coumarin-labeled 10-mer substrate, HPLC detection; format: biochemical; conditions: E64 at 10 μM; membrane preparations from WT mice
T1 construct: a brain membrane extract containing endogenous BACE-1; from tissue; host or cells: mouse brain membrane preparation (wild-type mice)
Experimental: as §1, §2, §3, §4

[4] = tested on: BACE-1 activity in CSF; assay: CSF BACE-1 activity with combinations of protease inhibitors (FIG. 9); format: biochemical; conditions: Merck-3 at 10 μM; Pepstatin A 10 μM present
Experimental: as §5, §6, §7, §8

T1 sequence (P56818 46-501): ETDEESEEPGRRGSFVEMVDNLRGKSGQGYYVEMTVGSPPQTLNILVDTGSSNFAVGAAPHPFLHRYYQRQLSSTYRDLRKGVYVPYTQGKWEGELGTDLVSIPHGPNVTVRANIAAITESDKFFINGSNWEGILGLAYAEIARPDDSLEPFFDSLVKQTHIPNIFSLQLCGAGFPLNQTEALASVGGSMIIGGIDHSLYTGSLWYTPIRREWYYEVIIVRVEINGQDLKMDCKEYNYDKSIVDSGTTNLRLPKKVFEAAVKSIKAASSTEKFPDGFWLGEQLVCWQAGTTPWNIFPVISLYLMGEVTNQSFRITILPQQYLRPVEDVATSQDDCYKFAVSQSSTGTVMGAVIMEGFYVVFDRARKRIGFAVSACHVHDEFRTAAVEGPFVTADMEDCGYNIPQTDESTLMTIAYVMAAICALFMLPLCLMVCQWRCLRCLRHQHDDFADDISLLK

**Q.** Which “non-specific aspartyl protease activity (FIG. 4)” value [1] does the source give for `CC(C)CC(=O)N[C@H](C(=O)N[C@H](C(=O)N[C@@H](CC(C)C)[C@@H](O)CC(=O)N[C@@H](C)C(=O)N[C@@H](CC(C)C)[C@@H](O)CC(=O)O)C(C)C)C(C)C` [Pepstatin A, pepstatin A] (Isovaleryl-VV[Sta]A[Sta]-OH) here?
**A.** The value was “abolished”.

**Q.** And the “non-specific aspartyl protease activity in CSF (FIG. 9)” value [2]?
**A.** Its value is “abolished”.

**Q.** `CC(C)C[C@H](NC(=O)[C@H]1O[C@@H]1C(=O)O)C(=O)NCCCCN=C(N)N` [E64] was tested. Which “effect on cleavage of substrate (FIG. 4)” value [3] did it give?
**A.** Its value is “no effect on cleavage of substrate”.

**Q.** `C[C@@H](NC(=O)c1cc(C(=O)N[C@@H](Cc2ccccc2)[C@H](O)CNC2CC2)cc(N(C)S(C)(=O)=O)c1)c1ccccc1` [Merck-3] was tested. Which “BACE-1 activity in CSF remaining after Pepstatin A (FIG. 9)” value [4] did it give?
**A.** The value was “completely abolished”.
